Source: PMC9585939, “Unveiling a family of spiro-β-lactams with anti-HIV and antiplasmodial activity via phosphine-catalyzed [3+2] annulation of 6-alkylidene-penicillanates and allenoates” (Frontiers in Chemistry, 2022)

Tests used:
[1] = Cellular viability assay (alamarBlue) in TZM-bl cells; format: cell-based; settings: human, 50% cytotoxic concentration
Experimental: Before the antiviral activity screening, all spirocyclopentene-β-lactams were assayed for their in vitro cytotoxic activity (CC50) in TZM-bl cells (Table 4).
TZM-bl cells (AIDS Research and Reference Reagent Program, National Institutes of Health, United States) were cultured in complete growth medium consisting of Dulbecco’s Minimal Essential Medium (DMEM) supplemented with 10% fetal bovine serum (FBS), 100 U/ml of penicillin–streptomycin (Gibco/Invitrogen, United States), 1 mM of sodium pyruvate (Gibco/Invitrogen, United States), 2 mM of L-glutamine (Gibco/Invitrogen, United States), and 1 mM of non-essential amino acids (Gibco/Invitrogen, United States). Cell cultures were maintained at 37°C in 5% CO2.
The in vitro cytotoxicity of test compounds was evaluated in TZM-bl cells using alamarBlue cell viability reagent (Life Technologies, United States), according to the instructions of the manufacturer. The cells were cultured in the presence and absence of serial-fold dilutions of the test compounds. Each dilution of each compound was performed in triplicate wells. Medium controls (only growth medium), cell controls (cells without test compound), and cytotoxicity controls (a compound that kills cells) were employed in each assay.

P. berghei hepatic stage = test: In vitro hepatic infection of Huh7 cells by luciferase-expressing P. berghei; format: cell-based; settings: Plasmodium berghei, Huh-7; hepatic stage, Huh7 cells, 48 h after infection
Experimental: The inhibitory activity of test compounds on in vitro hepatic infection by P. berghei was determined by comparing the parasite load in compound- and solvent-treated P. berghei-infected Huh7 cells. Infection load was assessed by measurement of luminescence intensity in Huh7 cells infected, with a firefly luciferase-expressing P. berghei line, as previously described ([Ploemen et al., 2009]; [António et al., 2017]). Briefly, Huh7 cells were seeded in 96-well plates (1.0 × 10^4 cells per well) the day before drug treatment and infection. The medium was replaced by another medium containing the appropriate concentration of each compound approximately 1 h prior to infection with sporozoites freshly obtained through disruption of salivary glands of infected female Anopheles stephensi mosquitoes. Sporozoite addition was followed by centrifugation at 1,800 g for 5 min. Parasite infection load was measured 48 h after infection by a bioluminescence assay (Biotium). Cell confluence, a surrogate measure of compound toxicity to Huh7 cells, was assessed by fluorescence measurements using the alamarBlue assay, according to the manufacturer’s instructions. […] Specifically, non-linear regression analysis was employed to fit the normalized results of the dose-response curves, and IC50 values were determined using GraphPad Prism 8.0 (GraphPad Software, La Jolla, California, United States).

HIV-2 03PTHCC19 = test: microbe, parasite or virus in culture; settings: Human immunodeficiency virus 2, TZM-bl; for IC50 / IC90: 48 h; for IC50: read-out: IC50 HIV-2; for IC90: read-out: IC90 HIV-2; for inhibition at 25 µg/mL: read-out: MPI (%) 25 μg/mL
Description: (§1) The HIV-1 SG3.1 is a reference subtype B strain that uses the CXCR4 coreceptor. It was obtained by transfection of HEK293T cells with pSG3.1 plasmid using jetPRIME transfection reagent (Polyplus-transfection SA, Illkirch, France), according to the instructions of the manufacturer.
(§2) Briefly, TZM-bl cells were infected with 200 TCID50 of HIV-1 or HIV-2 in the presence of serial-fold dilutions of the compounds in the growth medium, supplemented with diethylaminoethyl-dextran (DEAE-dextran). After 48 h of infection, luciferase expression was quantified with Pierce Firefly Luc One-Step Glow Assay Kit (ThermoFisher Scientific, Rockford, United States), according to the instructions of the manufacturer. For each compound dilution, the assay was set up in triplicate wells. Virus controls, cell controls, and inhibitors controls (drugs with a known action against each virus) were employed.

HIV-1 SG3.1 = test: microbe, parasite or virus in culture; settings: for IC50 / IC90 / inhibition at 25 µg/mL: Human immunodeficiency virus 1, TZM-bl; for IC50 / IC90: 48 h; for IC50: read-out: IC50 HIV-1, TZM-bl cells, 48 h; for IC90: read-out: IC90 HIV-1; for inhibition at 25 µg/mL: read-out: MPI (%) 25 μg/mL; for Therapeutic index (CC50/IC50): HIV-1, CC50 in TZM-bl cells
Description: as §1, §2

CC1(C)SC2N(C(=O)C23CC=C(C(=O)OCC=Cc2ccccc2)C3C(=O)c2ccccc2)C1C(=O)OC(c1ccccc1)c1ccccc1 (stereo not drawn) [Compound 9n, (1’R,2’R)-Benzhydryl spiro[(2-benzoyl-3-cinnamyloxycarbonylcyclopent-3-ene)-1’,6-penicillanate]]
CC50 [1]: 62300 nM
IC50 (P. berghei hepatic stage): 1580 ± 191 nM
IC50 (HIV-2 03PTHCC19): 16 nM
IC90 (HIV-2 03PTHCC19): 64 nM
inhibition at 25 µg/mL (HIV-2 03PTHCC19): 100%
IC50 (HIV-1 SG3.1): 17 nM
IC90 (HIV-1 SG3.1): 46 nM
inhibition at 25 µg/mL (HIV-1 SG3.1): 100%
melting point: 67.8 to 69.4 °C

CC1(C)SC2N(C(=O)C23CC=C(C(=O)OCc2ccccc2)C3C(=O)c2ccc(Br)cc2)C1C(=O)OC(c1ccccc1)c1ccccc1 (stereo not drawn) [Compound 12c, (1’R,2’R)-Benzhydryl spiro[(2-(4-bromobenzoyl)-3-benzyloxycarbonylcyclopent-3-ene)-1’,6-penicillanate]]
CC50 [1]: 55000 nM
IC50 (P. berghei hepatic stage): 1000 to 10000 nM
IC50 (HIV-2 03PTHCC19): 93 nM
IC90 (HIV-2 03PTHCC19): 159 nM
inhibition at 25 µg/mL (HIV-2 03PTHCC19): 100%
IC50 (HIV-1 SG3.1): 50 nM
IC90 (HIV-1 SG3.1): 116 nM
inhibition at 25 µg/mL (HIV-1 SG3.1): 87%
melting point: 156.5 to 158.5 °C

CC1(C)SC2N(C(=O)C23CC=C(C(=O)OCc2ccccc2)C3C(=O)c2ccco2)C1C(=O)OC(c1ccccc1)c1ccccc1 (stereo not drawn) [Compound 12i, (1’R,2’R)-Benzhydryl spiro[(2-furoyl-3-benzyloxycarbonylcyclopent-3-ene)-1’,6-penicillanate]]
CC50 [1]: 78300 nM
Therapeutic index (CC50/IC50) (HIV-1 SG3.1): 559.29
IC50 (HIV-1 SG3.1): 140 nM
IC90 (HIV-1 SG3.1): 223 nM
inhibition at 25 µg/mL (HIV-1 SG3.1): 87%
melting point: 76.5 to 78.5 °C

CC1(C)SC2N(C(=O)C23C(C(=O)OCc2ccccc2)=CCC3C(=O)c2ccc(F)cc2)C1C(=O)OC(c1ccccc1)c1ccccc1 (stereo not drawn) [Compound 13a, (1′R,2′R)-benzhydryl spiro[(2-(4-fluorobenzoyl)-5-benzyloxycarbonylcyclopent-4-ene)-1′,6-penicillanate]]
CC50 [1]: 64800 nM
inhibition at 25 µg/mL (HIV-1 SG3.1): 0%
melting point: 73.9 to 75.9 °C

CC1(C)SC2N(C(=O)C23C(C(=O)OCc2ccccc2)=CCC3C(=O)c2ccc(Cl)cc2)C1C(=O)OC(c1ccccc1)c1ccccc1 (stereo not drawn) [Compound 13b, (1’R,2’R)-Benzhydryl spiro[(2-(4-chlorobenzoyl)-5-benzyloxycarbonylcyclopent-4-ene)-1’,6-penicillanate]]
CC50 [1]: 63700 nM
inhibition at 25 µg/mL (HIV-1 SG3.1): 0%
melting point: 116.3 to 118.3 °C

CC1(C)SC2N(C(=O)C23C(C(=O)OCc2ccccc2)=CCC3C(=O)c2ccc(Br)cc2)C1C(=O)OC(c1ccccc1)c1ccccc1 (stereo not drawn) [Compound 13c, (1’R,2’R)-Benzhydryl spiro[(2-(4-bromobenzoyl)-5-benzyloxycarbonylcyclopent-4-ene)-1’,6-penicillanate]]
CC50 [1]: 50600 nM
inhibition at 25 µg/mL (HIV-1 SG3.1): 0%
melting point: 115.9 to 117.9 °C

CC1(C)SC2N(C(=O)C23C(C(=O)OCc2ccccc2)=CCC3C(=O)c2ccc([N+](=O)[O-])cc2)C1C(=O)OC(c1ccccc1)c1ccccc1 (stereo not drawn) [Compound 13d, (1’R,2’R)-Benzhydryl spiro[(2-(4-nitrobenzoyl)-5-benzyloxycarbonylcyclopent-4-ene)-1’,6-penicillanate]]
CC50 [1]: 73800 nM
inhibition at 25 µg/mL (HIV-1 SG3.1): 0%
melting point: 122.7 to 124.7 °C

CC1(C)SC2N(C(=O)C23C(C(=O)OCc2ccccc2)=CCC3C(=O)c2ccc(C(F)(F)F)cc2)C1C(=O)OC(c1ccccc1)c1ccccc1 (stereo not drawn) [Compound 13e, (1’R,2’R)-Benzhydryl spiro[(2-(4-trifluoromethylbenzoyl)-5-benzyloxycarbonylcyclopent-4-ene)-1’,6-penicillanate]]
CC50 [1]: 54700 nM
inhibition at 25 µg/mL (HIV-1 SG3.1): 0%
melting point: 141.1 to 143.1 °C

CC1(C)SC2N(C(=O)C23C(C(=O)OCc2ccccc2)=CCC3C(=O)c2cc(F)cc(F)c2)C1C(=O)OC(c1ccccc1)c1ccccc1 (stereo not drawn) [Compound 13f, (1’R,2’R)-Benzhydryl spiro[(2-(3,5-difluorobenzoyl)-5-benzyloxycarbonylcyclopent-4-ene)-1’,6-penicillanate]]
CC50 [1]: 58800 nM
inhibition at 25 µg/mL (HIV-1 SG3.1): 0%
melting point: 134.8 to 136.8 °C

CC1(C)SC2N(C(=O)C23C(C(=O)OCc2ccccc2)=CCC3C(=O)c2ccc3ccccc3c2)C1C(=O)OC(c1ccccc1)c1ccccc1 (stereo not drawn) [Compound 13h, (1’R,2’R)-Benzhydryl spiro[(2-naphthoyl-5-benzyloxycarbonylcyclopent-4-ene)-1’,6-penicillanate]]
CC50 [1]: 56200 nM
inhibition at 25 µg/mL (HIV-1 SG3.1): 0%
melting point: 90.8 to 92.8 °C

CC1(C)SC2N(C(=O)C23C(C(=O)OCc2ccccc2)=CCC3C(=O)c2ccco2)C1C(=O)OC(c1ccccc1)c1ccccc1 (stereo not drawn) [Compound 13i, (1’R,2’R)-Benzhydryl spiro[(2-furoyl-5-benzyloxycarbonylcyclopent-4-ene)-1’,6-penicillanate]]
CC50 [1]: 61200 nM
inhibition at 25 µg/mL (HIV-1 SG3.1): 0%
melting point: 112.8 to 114.8 °C

Cc1ccc(COC(=O)C2=CCC3(C(=O)N4C(C(=O)OC(c5ccccc5)c5ccccc5)C(C)(C)SC43)C2C(=O)c2ccc(Cl)cc2)cc1 (stereo not drawn) [Compound 14e, (1’R,2’R)-Benzhydryl spiro[(2-(4-chlorobenzoyl)-3-(4-methylbenzyloxycarbonyl)cyclopent-3-ene)-1’,6-penicillanate]]
CC50 [1]: 100000 nM
Therapeutic index (CC50/IC50) (HIV-1 SG3.1): 474.41
IC50 (HIV-1 SG3.1): 211 nM
IC90 (HIV-1 SG3.1): 720 nM
inhibition at 25 µg/mL (HIV-1 SG3.1): 94%
melting point: 79.5 to 81.5 °C

CC1(C)SC2N(C(=O)C23CC=C(C(=O)OCC=Cc2ccccc2)C3C(=O)c2ccc(Cl)cc2)C1C(=O)OC(c1ccccc1)c1ccccc1 (stereo not drawn) [Compound 14f, (1’R,2’R)-Benzhydryl spiro[(2-(4-chlorobenzoyl)-3-cinnamyloxycarbonylcyclopent-3-ene)-1’,6-penicillanate]]
CC50 [1]: 87500 nM
Therapeutic index (CC50/IC50) (HIV-1 SG3.1): 1305.67
IC50 (HIV-1 SG3.1): 67 nM
IC90 (HIV-1 SG3.1): 198 nM
inhibition at 25 µg/mL (HIV-1 SG3.1): 97%
melting point: 81.7 to 83.7 °C

Cc1ccc(COC(=O)C2=CCC3(C(=O)N4C(C(=O)OC(c5ccccc5)c5ccccc5)C(C)(C)SC43)C2C(=O)c2ccc(Br)cc2)cc1 (stereo not drawn) [Compound 14h, (1’R,2’R)-Benzhydryl spiro[(2-(4-bromobenzoyl)-3-(4-methylbenzyloxycarbonyl)cyclopent-3-ene)-1’,6-penicillanate]]
CC50 [1]: 72100 nM
Therapeutic index (CC50/IC50) (HIV-1 SG3.1): 649.73
IC50 (HIV-1 SG3.1): 111 nM
IC90 (HIV-1 SG3.1): 297 nM
inhibition at 25 µg/mL (HIV-1 SG3.1): 93%
melting point: 74.9 to 76.9 °C

CC1(C)SC2N(C(=O)C23CC=C(C(=O)OCC=Cc2ccccc2)C3C(=O)c2ccc(Br)cc2)C1C(=O)OC(c1ccccc1)c1ccccc1 (stereo not drawn) [Compound 14i, (1’R,2’R)-Benzhydryl spiro[(2-(4-bromobenzoyl)-3-cinnamyloxycarbonylcyclopent-3-ene)-1’,6-penicillanate]]
CC50 [1]: 66900 nM
Therapeutic index (CC50/IC50) (HIV-1 SG3.1): 467.62
IC50 (HIV-1 SG3.1): 143 nM
IC90 (HIV-1 SG3.1): 305 nM
inhibition at 25 µg/mL (HIV-1 SG3.1): 95%
melting point: 89.1 to 91.1 °C
